The record followed here is PubChem BioAssay AID248 (DTP/NCI, 2004).

For this test, the system named is L1210 leukemia ip in BDF1 mice, survival T/C. The test is described as follows: NCI In Vivo Anticancer Drug Screen. Data for tumor model L1210 Leukemia (intraperitoneal) in B6D2F1 (BDF1) mice. As to conditions: endpoint: mean survival time, higher = longer survival. In short, it runs like this: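 Tumor was transplanted into mice, which were then dosed with test compound or vehicle alone. Survival was recorded for each group, and the treated figure was expressed relative to the control figure.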

Setting [1] is: dose: 100.0 mg/kg/injection, schedule: Q01DX001 (ip), vehicle: carboxymethylcellulose (CMC).
The mark [2] stands for this setting: dose: 200.0 mg/kg/injection, schedule: Q01DX001 (ip), vehicle: carboxymethylcellulose (CMC).
[3] abbreviates: dose: 100.0 mg/kg/injection, schedule: Q01DX009 (ip), vehicle: Klucel (hydroxypropylcellulose) (HPC).
[4] abbreviates: dose: 100.0 mg/kg/injection, schedule: Q04DX003 (ip), vehicle: Klucel (hydroxypropylcellulose) (HPC).
Where [5] appears, read: dose: 200.0 mg/kg/injection, schedule: Q01DX009 (ip), vehicle: Klucel (hydroxypropylcellulose) (HPC).
Setting [6] is: dose: 200.0 mg/kg/injection, schedule: Q04DX003 (ip), vehicle: Klucel (hydroxypropylcellulose) (HPC).
[7] abbreviates: dose: 400.0 mg/kg/injection, schedule: Q01DX009 (ip), vehicle: Klucel (hydroxypropylcellulose) (HPC).
The mark [8] stands for this setting: dose: 400.0 mg/kg/injection, schedule: Q04DX003 (ip), vehicle: Klucel (hydroxypropylcellulose) (HPC).
[9] abbreviates: dose: 75.0 mg/kg/injection, schedule: Q01DX001 (ip), vehicle: saline.
Where [10] appears, read: dose: 100.0 mg/kg/injection, schedule: Q04DX003 (ip), vehicle: saline with Tween-80.
The mark [11] stands for this setting: dose: 200.0 mg/kg/injection, schedule: Q04DX003 (ip), vehicle: saline with Tween-80.
Setting [12] is: dose: 100.0 mg/kg/injection, schedule: Q04DX003 (ip), vehicle: saline.
Where [13] appears, read: dose: 200.0 mg/kg/injection, schedule: Q04DX003 (ip), vehicle: saline.
Setting [14] is: dose: 400.0 mg/kg/injection, schedule: Q04DX003 (ip), vehicle: saline.

Inconclusive results and toxic doses are left out.

`CC1CN1C(=O)OCCOC(=O)N1CC1C` (stereo not given): the T/C (dose: 200.0 mg/kg/injection, schedule: Q01DX Z (ip), vehicle: saline) is 108 % of control; the T/C (dose: 444.0 mg/kg/injection, schedule: Q01DX009 (ip), vehicle: saline) was 104 % of control; the T/C (dose: 450.0 mg/kg/injection, schedule: Q01DX Z (ip), vehicle: saline) was 188 % of control; the T/C (dose: 666.0 mg/kg/injection, schedule: Q01DX009 (ip), vehicle: saline) was 107 % of control; the T/C (dose: 675.0 mg/kg/injection, schedule: Q01DX Z (ip), vehicle: saline) is 195 % of control; the T/C (dose: 750.0 mg/kg/injection, schedule: Q01DX001 (ip), vehicle: saline) is 117 % of control. Further, the T/C is 115 % of control (dose: 1000.0 mg/kg/injection, schedule: Q01DX009 (ip), vehicle: saline); 106 % of control (dose: 1500.0 mg/kg/injection, schedule: Q01DX001 (ip), vehicle: saline); 96 % of control (dose: 1500.0 mg/kg/injection, schedule: Q01DX009 (ip), vehicle: saline).

For `O=C(O)c1cc(-c2ccccc2)cc(Br)c1O`, the T/C is 93 % of control under setting [1] and 95 % of control under setting [2].

Take `CCN(CC)c1ccc(Cc2ccc(N(CC)CC)cc2Br)c(Br)c1`: the T/C under setting [3] was 100 % of control; the T/C under setting [4] is 96 % of control; the T/C under setting [5] was 105 % of control; the T/C under setting [6] was 104 % of control; the T/C under setting [7] was 107 % of control; the T/C under setting [8] was 94 % of control.

In the case of `O=C(Oc1ccccc1Cl)c1ccc(Cl)cc1Cl`, the T/C by setting is: under setting [3], 91 % of control; under setting [4], 93 % of control; under setting [5], 90 % of control; under setting [6], 96 % of control; under setting [7], 91 % of control; under setting [8], 98 % of control.

For the compound `O=C(c1ccccc1)C1CNCCC1(O)c1ccccc1` (stereo not given), the T/C was 104 % of control under setting [9]; 101 % of control (dose: 75.0 mg/kg/injection, schedule: Q04DX003 (ip), vehicle: acetone); 95 % of control (dose: 150.0 mg/kg/injection, schedule: Q01DX001 (ip), vehicle: saline); 91 % of control (dose: 150.0 mg/kg/injection, schedule: Q04DX003 (ip), vehicle: acetone); 116 % of control (dose: 300.0 mg/kg/injection, schedule: Q01DX001 (ip), vehicle: saline).

Consider `O=C1c2cc(Br)ccc2-c2cc(Br)c([N+](=O)[O-])c(Br)c21`, for which the T/C runs as follows: under setting [1], 106 % of control; under setting [2], 103 % of control; (dose: 400.0 mg/kg/injection, schedule: Q01DX001 (ip), vehicle: carboxymethylcellulose (CMC)) 97 % of control.

In the case of `O=C(O)COc1ccc(Cl)cc1Cl` (tested in a mixture with another compound), the T/C is, setting by setting: (dose: 25.0 mg/kg/injection, schedule: Q04DX003 (ip), vehicle: saline) 102 % of control; (dose: 50.0 mg/kg/injection, schedule: Q04DX003 (ip), vehicle: saline) 98 % of control; under setting [1], 93 % of control; (dose: 100.0 mg/kg/injection, schedule: Q04DX003 (ip), vehicle: other) 90 % of control; (dose: 200.0 mg/kg/injection, schedule: Q04DX003 (ip), vehicle: other) 95 % of control; (dose: 400.0 mg/kg/injection, schedule: Q04DX003 (ip), vehicle: other) 115 % of control.

Consider `NC(=O)c1cc(C(N)=O)cc([N+](=O)[O-])c1`, for which the T/C runs as follows: (dose: 50.0 mg/kg/injection, schedule: Q01DX009 (ip), vehicle: saline with Tween-80) 101 % of control; (dose: 100.0 mg/kg/injection, schedule: Q01DX009 (ip), vehicle: saline with Tween-80) 101 % of control; under setting [10], 100 % of control; under setting [11], 96 % of control.

Regarding `Cc1cc(Cl)ccc1NC(=O)c1cccc(C(=O)Nc2ccc(Cl)cc2C)c1`, the T/C under setting [3] is 97 % of control; the T/C under setting [4] was 98 % of control; the T/C under setting [5] is 92 % of control; the T/C under setting [6] was 90 % of control; the T/C under setting [7] is 87 % of control; the T/C under setting [8] was 93 % of control.

For the compound `CSC(=N)N(C)Cc1ccccc1`, the T/C runs as follows: (dose: 9.37 mg/kg/injection, schedule: Q01DX009 (ip), vehicle: saline) 103 % of control; (dose: 18.75 mg/kg/injection, schedule: Q01DX009 (ip), vehicle: saline) 111 % of control; (dose: 18.75 mg/kg/injection, schedule: Q04DX003 (ip), vehicle: saline) 102 % of control; (dose: 37.5 mg/kg/injection, schedule: Q01DX009 (ip), vehicle: saline) 108 % of control; (dose: 37.5 mg/kg/injection, schedule: Q04DX003 (ip), vehicle: saline) 96 % of control; under setting [9], 102 % of control. Where the note is “dose: 75.0 mg/kg/injection, schedule: Q04DX003 (ip), vehicle: saline”, the T/C was 88 % of control.

Consider `CS(=O)(=O)N(c1ccccc1)c1ccccc1N`, for which the T/C runs as follows: (dose: 100.0 mg/kg/injection, schedule: Q01DX001 (ip), vehicle: other) 94 % of control; (dose: 200.0 mg/kg/injection, schedule: Q01DX001 (ip), vehicle: other) 107 % of control; (dose: 400.0 mg/kg/injection, schedule: Q01DX001 (ip), vehicle: other) 88 % of control.

On to `O=C(Oc1ccncc1)c1ccccc1`, for which the T/C is 92 % of control (dose: 100.0 mg/kg/injection, schedule: Q01DX001 (ip), vehicle: saline with Tween-80); 96 % of control (dose: 200.0 mg/kg/injection, schedule: Q01DX001 (ip), vehicle: saline with Tween-80); 103 % of control (dose: 400.0 mg/kg/injection, schedule: Q01DX001 (ip), vehicle: saline with Tween-80).

As to `O=C(Nc1ccc(NC(=O)Nc2cc(C(=O)Nc3ccc(C4=NCCN4)cc3)ccc2C(=O)Nc2ccc(C3=NCCN3)cc2)cc1)Nc1cc(C(=O)Nc2ccc(C3=NCCN3)cc2)ccc1C(=O)Nc1ccc(C2=NCCN2)cc1`, the T/C by setting is: (dose: 100.0 mg/kg/injection, schedule: Q01DX Z (oral), vehicle: saline) 93 % of control; (dose: 120.0 mg/kg/injection, schedule: Q01DX Z (ip), vehicle: saline) 120 % of control; (dose: 200.0 mg/kg/injection, schedule: Q01DX Z (oral), vehicle: saline) 98 % of control; (dose: 400.0 mg/kg/injection, schedule: Q01DX Z (oral), vehicle: saline) 101 % of control.

In the case of `CCN(CC)CCCNC(=S)NC(C)(C)CC(C)=O`, the T/C is 89 % of control (dose: 50.0 mg/kg/injection, schedule: Q01DX009 (ip), vehicle: Klucel (hydroxypropylcellulose) (HPC)); 105 % of control under setting [3]; 97 % of control under setting [12]; 101 % of control under setting [13]; 100 % of control under setting [14].

Consider `O=C(O)c1nccc2c([N+](=O)[O-])cccc12`, for which the T/C under setting [12] was 97 % of control, the T/C under setting [13] is 97 % of control and the T/C under setting [14] is 92 % of control.

As to `Fc1ccc(NC(=S)SCc2ccc(Cl)cc2)cc1F`, the T/C by setting is: under setting [10], 102 % of control; under setting [11], 91 % of control; (dose: 400.0 mg/kg/injection, schedule: Q04DX003 (ip), vehicle: saline with Tween-80) 102 % of control.
